Patent US12661410B2, “Compounds for targeted degradation of RET” (C4 Therapeutics, Inc., priority 2020, dated 2026)
Numbering of substitutions follows the chain as printed. Read-outs that look alike come from different tables or passages of the source.

Legend:
[1] = target: T1, RET (658-1114) (Homo sapiens, UniProt P07949); test: HiBiT-Degradation, RET wild-type degradation assay (Nano-Glo HiBiT Lytic), 293T.144 cells; assay type: cell-based; settings: for DC50 / Emax: 6.0 hours
T1 construct: 658-1114; expressed in transfected cells; host or cells: 293T.144 (293T cells, generated in-house)
T1 sequence (P07949 658-1114): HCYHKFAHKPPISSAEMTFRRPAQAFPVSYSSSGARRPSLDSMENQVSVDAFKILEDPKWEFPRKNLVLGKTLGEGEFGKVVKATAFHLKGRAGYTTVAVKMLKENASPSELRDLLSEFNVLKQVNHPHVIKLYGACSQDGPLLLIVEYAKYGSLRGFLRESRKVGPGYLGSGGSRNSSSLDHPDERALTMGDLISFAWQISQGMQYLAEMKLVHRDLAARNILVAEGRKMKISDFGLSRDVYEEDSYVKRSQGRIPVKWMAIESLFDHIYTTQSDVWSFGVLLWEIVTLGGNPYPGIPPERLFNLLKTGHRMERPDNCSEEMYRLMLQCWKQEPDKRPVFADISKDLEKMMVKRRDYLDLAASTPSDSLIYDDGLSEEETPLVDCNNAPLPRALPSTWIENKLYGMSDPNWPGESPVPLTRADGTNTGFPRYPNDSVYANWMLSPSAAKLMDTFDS
Summary of the method: (§1)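 6 h treatment, 293T.144 (WT) / 293T.165 (G810R) cells ectopically expressing HiBiT-fused RET KD; 11-pt half-log dilution, top 10 μM, n=2. Nano-Glo HiBiT lytic detection, luminescence. Output: DC50, Emax (% protein remaining).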

[2] = target: T2, RET(KD: 658-1114 G810R) (Homo sapiens, UniProt P07949, G810R); test: HiBiT-Degradation, RET G810R degradation assay (Nano-Glo HiBiT Lytic), 293T.165 cells; assay type: cell-based; settings: for Emax / DC50: 6.0 hours
T2 construct: 658-1114; expressed in transfected cells; host or cells: 293T.165 (293T cells, generated in-house)
T2 sequence (P07949 658-1114 G810R): T1 sequence (P07949 658-1114) with G153R
Summary of the method: as §1

[3] = HiBiT-Degradation, read-out: 293T.144 RET (658-1114) 6.0 hours (DC50)
[4] = HiBiT-Degradation, read-out: 293T.144 RET (658-1114) 6.0 hours (Emax)
[5] = % remaining protein, read-out: 293T.165 RET(KD: 658-1114 G810R) 6.0 hours (Emax)
[6] = half-maximal degradation concentration, read-out: 293T.165 RET(KD: 658-1114 G810R) 6.0 hours (DC50)
[7] = HiBiT-Degradation, read-out: 293T.165 RET(KD: 658-1114 G810R) 6.0 hours (DC50)
[8] = RET wild-type, read-out: HiBiT-Degradation 293T.144 RET (658-1114) 6.0 hours (DC50)
[9] = RET wild-type, read-out: HiBiT-Degradation 293T.144 RET (658-1114) 6.0 hours (Emax)
[10] = RET G810R, read-out: HiBiT-Degradation 293T.165 RET(KD: 658-1114 G810R) 6.0 hours (DC50)
[11] = RET G810R, read-out: HiBiT-Degradation 293T.165 RET(KD: 658-1114 G810R) 6.0 hours (Emax)
[12] = % remaining protein, read-out: 293T.144 RET (658-1114) 6.0 hours (Emax)
[13] = half-maximal degradation concentration, read-out: 293T.144 RET (658-1114) 6.0 hours (DC50)

`N#Cc1cnn2cc(-c3ccc(N4CCN(C(=O)CN5CCC(c6ccc(NC7CCC(=O)NC7=O)cc6F)CC5)CC4)cc3)cc(-c3ccc(N4CCN(Cc5ccccn5)CC4)nc3)c12` (stereo not shown) [Compound 28, 6-(4-(4-(2-(4-(4-((2,6-Dioxopiperidin-3-yl)amino)-2-fluorophenyl)piperidin-1-yl)acetyl)piperazin-1-yl)phenyl)-4-(6-(4-(pyridin-2-ylmethyl)piperazin-1-yl)pyridin-3-yl)pyrazolo[1,5-a]pyridine-3-carbonitrile] was tested, and the “293T.144 RET (658-1114) 6.0 hours (IP) [nM]” value ([1]; HiBiT-Degradation) was “++++ (< 50 nM = ++++)”, the DC50 [1, 3] was less than 50 nM and the Emax [1, 4] was less than 30%. For the same compound, the Emax [2, 5] was less than 30%, the DC50 [2, 6] was less than 100 nM and the “293T.165 RET(KD: 658-1114 G810R) 6.0 hours (Emax)” value ([2]; HiBiT-Degradation) was “++++ (< 30% = ++++)”. The “293T.165 RET(KD: 658-1114 G810R) 6.0 hours (IP) [nM]” value ([2]; HiBiT-Degradation) was “++++ (< 50 nM = ++++)” and the DC50 [2, 7] was less than 100 nM.

For `N#Cc1cnn2cc(-c3cnn(C4CCN(C(=O)CN5CCC(c6ccc(NC7CCC(=O)NC7=O)cc6F)CC5)CC4)c3)cc(-c3ccc(N4CC5CC(C4)N5Cc4cccnc4)nc3)c12` (stereo not shown) [Compound 68, 6-[1-[1-[2-[4-[4-[(2,6-dioxo-3-piperidyl)amino]-2-fluoro-phenyl]-1-piperidyl]acetyl]-4-piperidyl]pyrazol-4-yl]-4-[6-[6-(3-pyridylmethyl)-3,6-diazabicyclo[3.1.1]heptan-3-yl]-3-pyridyl]pyrazolo[1,5-a]pyridine-3-carbonitrile], the “HiBiT-Degradation 293T.144 RET (658-1114) 6.0 hours (IP) [nM]” value (“HiBiT-Degradation 293T.144 RET” for short) ([1]; RET wild-type) was “++++ (< 50 nM = ++++)”, the DC50 [1, 8] was less than 50 nM and the Emax [1, 9] was less than 30%. The Emax [2, 5] was less than 30%, the DC50 [2, 6] was less than 50 nM and the “HiBiT-Degradation 293T.165 RET(KD: 658-1114 G810R) 6.0 hours (IP) [nM]” value ([2]; RET G810R) was “++++ (< 50 nM = ++++)”. For the same compound, the DC50 [2, 10] was less than 50 nM and the Emax [2, 11] was less than 30%.

With `N#Cc1cnn2cc(-c3cnn([C@H]4CC[C@H](N5CCN(c6ccc(N[C@H]7CCC(=O)NC7=O)cc6F)CC5)CC4)c3)nc(-c3ccc(N4CC5COCC(C4)N5Cc4ccccn4)nc3)c12` (single isomer, unassigned) [Compound 155] the “293T.144 RET (658-1114) 6.0 hours (IP) [nM]” value [1] was “++++ (<50 nM = ++++)”, the Emax [1, 12] was less than 30% and the DC50 [1, 13] was less than 50 nM. For the same compound, the “293T.165 RET(KD: 658-1114 G810R) 6.0 hours (IP) [nM]” value [2] was “++++ (<50 nM = ++++)”, the Emax [2, 5] was less than 30% and the DC50 [2, 6] was less than 50 nM.

With `CCC1(C(=O)NC2CCCC2)CCN(c2ccc(-c3nc(-c4cnn([C@H]5CC[C@H](N6CCC(c7ccc(N[C@@H]8CCC(=O)NC8=O)cc7F)CC6)CC5)c4)cn4ncc(C#N)c34)cn2)CC1` [Compound 142, 1-[5-[3-cyano-6-[1-[4-[4-[4-[[(3R)-2,6-dioxo-3-piperidyl]amino]-2-fluoro-phenyl]-1-piperidyl]cyclohexyl]pyrazol-4-yl]pyrazolo[1,5-a]pyrazin-4-yl]-2-pyridyl]-N-cyclopentyl-4-ethyl-piperidine-4-carboxamide] the “293T.144 RET (658-1114) 6.0 hours (IP) [nM]” value [1] was “++++ (<50 nM = ++++)”, the Emax [1, 12] was less than 30% and the DC50 [1, 13] was less than 50 nM. The “293T.165 RET(KD: 658-1114 G810R) 6.0 hours (IP) [nM]” value [2] was “++++ (<50 nM = ++++)”, the Emax [2, 5] was less than 30% and the DC50 [2, 6] was less than 50 nM.

With `COc1ccnc(CN2C3CC2CN(c2ccc(-c4cc(-c5cnn(C6CCN(C(=O)CN7CCC(c8ccc(NC9CCC(=O)NC9=O)cc8F)CC7)CC6)c5)cn5ncc(C#N)c45)cn2)C3)c1` (stereo not shown) [Compound 71, 6-[1-[1-[2-[4-[4-[(2,6-dioxo-3-piperidyl)amino]-2-fluoro-phenyl]-1-piperidyl]acetyl]-4-piperidyl]pyrazol-4-yl]-4-[6-[6-[(4-methoxy-2-pyridyl)methyl]-3,6-diazabicyclo[3.1.1]heptan-3-yl]-3-pyridyl]pyrazolo[1,5-a]pyridine-3-carbonitrile] the “HiBiT-Degradation 293T.144 RET” value ([1]; RET wild-type) was “++++ (< 50 nM = ++++)”, the DC50 [1, 8] was less than 50 nM and the Emax [1, 9] was less than 30%. For the same compound, the Emax [2, 5] was less than 30%, the DC50 [2, 6] was less than 100 nM and the “HiBiT-Degradation 293T.165 RET(KD: 658-1114 G810R) 6.0 hours (IP) [nM]” value ([2]; RET G810R) was “++++ (< 50 nM = ++++)”. For the same compound, the DC50 [2, 10] was less than 100 nM and the Emax [2, 11] was less than 30%.

`COc1cc(N2CCN([C@H]3CC[C@H](n4cc(-c5cn6ncc(C#N)c6c(-c6ccc(N7C[C@@H]8C[C@@](C)(NC(=O)c9ncccc9Cl)C[C@@H]8C7)nc6)n5)cn4)CC3)CC2)c(F)cc1NC1CCC(=O)NC1=O` (stereo partly drawn) [Compound 209, N-[(3aR,6aS)-2-[5-[3-cyano-6-[1-[4-[4-[4-[(2,6-dioxo-3-piperidyl)amino]-2-fluoro-5-methoxy-phenyl]piperazin-1-yl]cyclohexyl]pyrazol-4-yl]pyrazolo[1,5-a]pyrazin-4-yl]-2-pyridyl]-5-methyl-1,3,3a, 4,6,6a-hexahydrocyclopenta[c]pyrrol-5-yl]-3-chloro-pyridine-2-carboxamide] was tested, and the “293T.144 RET (658-1114) 6.0 hours (IP) [nM]” value [1] was “++++ (<50 nM = ++++)”, the Emax [1, 12] was less than 30% and the DC50 [1, 13] was less than 50 nM. For the same compound, the “293T.165 RET(KD: 658-1114 G810R) 6.0 hours (IP) [nM]” value [2] was “++++ (<50 nM = ++++)”, the Emax [2, 5] was less than 30% and the DC50 [2, 6] was less than 100 nM.

With `CC(C)NC(=O)C1(C)CCN(c2ccc(-c3cc(-c4cnn(C5CCN(C(=O)CN6CCC(c7ccc(NC8CCC(=O)NC8=O)cc7F)CC6)CC5)c4)cn4ncc(C#N)c34)cn2)CC1` (stereo not shown) [Compound 2, 1-(5-(3-Cyano-6-(1-(1-(2-(4-(4-((2,6-dioxopiperidin-3-yl)amino)-2-fluorophenyl)piperidin-1-yl)acetyl)piperidin-4-yl)-1H-pyrazol-4-yl)pyrazolo[1,5-a]pyridin-4-yl)pyridin-2-yl)-N-isopropyl-4-methylpiperidine-4-carboxamide] the “293T.144 RET (658-1114) 6.0 hours (IP) [nM]” value ([1]; HiBiT-Degradation) was “++++ (< 50 nM = ++++)”, the DC50 [1, 3] was less than 50 nM and the Emax [1, 4] was less than 30%. For the same compound, the Emax [2, 5] was less than 50%, the DC50 [2, 6] was less than 50 nM and the “293T.165 RET(KD: 658-1114 G810R) 6.0 hours (Emax)” value ([2]; HiBiT-Degradation) was “+++ (<50% = +++)”. For the same compound, the “293T.165 RET(KD: 658-1114 G810R) 6.0 hours (IP) [nM]” value ([2]; HiBiT-Degradation) was “++++ (< 50 nM = ++++)” and the DC50 [2, 7] was less than 50 nM.

For `CCC1(C(=O)NC(C)C)CCN(c2ccc(-c3nc(-c4cnn([C@H]5CC[C@H](N6CCC(c7ccc(N[C@@H]8CCC(=O)NC8=O)cc7F)CC6)CC5)c4)cn4ncc(C#N)c34)cn2)CC1` (single isomer, unassigned) [Compound 124], the “293T.144 RET (658-1114) 6.0 hours (IP) [nM]” value [1] was “++++ (<50 nM = ++++)”, the Emax [1, 12] was less than 30% and the DC50 [1, 13] was less than 50 nM. For the same compound, the “293T.165 RET(KD: 658-1114 G810R) 6.0 hours (IP) [nM]” value [2] was “++++ (<50 nM = ++++)”, the Emax [2, 5] was less than 30% and the DC50 [2, 6] was less than 50 nM.

`N#Cc1cnn2cc(-c3cnn(C4CC5(C4)CN(C(=O)CN4CCC(c6ccc(NC7CCC(=O)NC7=O)cc6F)CC4)C5)c3)cc(-c3ccc(N4CCN(Cc5ccccn5)CC4)nc3)c12` (stereo not shown) [Compound 76, 6-[1-[2-[2-[4-[4-[(2,6-dioxo-3-piperidyl)amino]-2-fluoro-phenyl]-1-piperidyl]acetyl]-2-azaspiro[3.3]heptan-6-yl]pyrazol-4-yl]-4-[6-[4-(2-pyridylmethyl)piperazin-1-yl]-3-pyridyl]pyrazolo[1,5-a]pyridine-3-carbonitrile] was tested, and the “HiBiT-Degradation 293T.144 RET” value ([1]; RET wild-type) was “++++ (< 50 nM = ++++)”, the DC50 [1, 8] was less than 50 nM and the Emax [1, 9] was less than 30%. The Emax [2, 5] was less than 30%, the DC50 [2, 6] was less than 100 nM and the “HiBiT-Degradation 293T.165 RET(KD: 658-1114 G810R) 6.0 hours (IP) [nM]” value ([2]; RET G810R) was “+++ (<100 nM = +++)”. The DC50 [2, 10] was less than 100 nM and the Emax [2, 11] was less than 30%.

For `CO[C@@H](C(=O)N1CCN(c2ccc(-c3nc(-c4cnn([C@H]5CC[C@@H](N6CCN(c7c(F)cc(NC8CCC(=O)NC8=O)cc7F)CC6)CC5)c4)cn4ncc(C#N)c34)cn2)CC1)c1ccccc1` (single isomer, unassigned) [Compound 201], the “293T.144 RET (658-1114) 6.0 hours (IP) [nM]” value [1] was “++++ (<50 nM = ++++)”, the Emax [1, 12] was less than 30% and the DC50 [1, 13] was less than 50 nM. For the same compound, the “293T.165 RET(KD: 658-1114 G810R) 6.0 hours (IP) [nM]” value [2] was “++++ (<50 nM = ++++)”, the Emax [2, 5] was less than 30% and the DC50 [2, 6] was less than 50 nM.
